Biological target: T1, SERCA2 (Homo sapiens, UniProt P16615)
T1 construct: gene ATP2A2; endogenous SERCA2 in SW480 whole-cell lysates
Test: competition by […] free RL71 of the RL71-biotin streptavidin pull-down (LC/MS, anti-SERCA2 western blot); Ca2+-ATPase inhibition in treated SW480 cells
Type: cell-based

T1 sequence (P16615 whole entry): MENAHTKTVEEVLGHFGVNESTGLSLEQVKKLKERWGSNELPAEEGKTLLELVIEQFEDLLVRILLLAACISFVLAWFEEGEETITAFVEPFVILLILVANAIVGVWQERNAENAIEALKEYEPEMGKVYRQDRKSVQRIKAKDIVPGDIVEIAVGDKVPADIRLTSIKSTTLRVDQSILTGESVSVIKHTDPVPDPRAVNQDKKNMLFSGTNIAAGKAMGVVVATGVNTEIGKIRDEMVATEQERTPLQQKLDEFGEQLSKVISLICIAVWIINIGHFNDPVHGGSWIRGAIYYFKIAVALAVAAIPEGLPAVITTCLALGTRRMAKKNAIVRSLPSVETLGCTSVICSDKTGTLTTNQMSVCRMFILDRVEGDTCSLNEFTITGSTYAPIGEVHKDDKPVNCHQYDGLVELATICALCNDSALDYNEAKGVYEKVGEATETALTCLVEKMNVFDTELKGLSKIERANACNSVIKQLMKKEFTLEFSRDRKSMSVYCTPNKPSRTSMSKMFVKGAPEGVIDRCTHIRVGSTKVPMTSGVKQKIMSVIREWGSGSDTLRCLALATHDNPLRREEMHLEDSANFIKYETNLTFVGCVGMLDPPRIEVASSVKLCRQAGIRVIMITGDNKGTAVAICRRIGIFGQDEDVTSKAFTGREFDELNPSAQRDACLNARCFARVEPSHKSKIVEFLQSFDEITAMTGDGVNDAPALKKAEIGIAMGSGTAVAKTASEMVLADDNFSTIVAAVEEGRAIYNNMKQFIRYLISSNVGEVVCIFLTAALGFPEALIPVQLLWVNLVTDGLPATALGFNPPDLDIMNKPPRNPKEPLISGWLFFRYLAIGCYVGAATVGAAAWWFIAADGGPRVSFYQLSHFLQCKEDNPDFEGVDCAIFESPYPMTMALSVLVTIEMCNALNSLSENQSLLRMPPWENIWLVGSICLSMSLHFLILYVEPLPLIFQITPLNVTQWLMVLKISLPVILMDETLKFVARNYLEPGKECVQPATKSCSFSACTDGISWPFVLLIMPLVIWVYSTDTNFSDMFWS

With `COc1cc(C=C2CN(C)CC(=Cc3cc(OC)c(OC)c(OC)c3)C2=O)cc(OC)c1OC` [compound 1, 3,5-bis(3,4,5-trimethoxybenzylidene)-1-methylpiperidine-4-one] the “competition by 200 μM free RL71 of the RL71-biotin streptavidin pull-down (LC/MS)” value was “The interaction between RL71-biotin and SERCA2 could be competed by RL71”.

Reference: PMC4741952, “Small molecule RL71 targets SERCA2 at a novel site in the treatment of human colorectal cancer” (Oncotarget, 2015)
